Results taken from US9255098B2, “Xanthine derivative” (Chengdu Easton Pharmaceutical Co., Ltd., priority 2012, dated 2016).
Counter-ions that a name gives are not always drawn.

Experiments:
[1] = system: normal KM mice; assay: Impact on glucose tolerance in normal mice; type: in vivo; settings: for blood glucose at 30 min after glucose loaded / blood glucose at 60 min after glucose loaded / blood glucose at 120 min after glucose loaded / Fasting blood glucose: normal KM mice, x ± SD; for blood glucose at 30 min after glucose loaded / blood glucose at 60 min after glucose loaded / blood glucose at 120 min after glucose loaded / blood glucose levels compared with the blank group / blood glucose value compared with the positive drug (Linagliptin): 3 mg/kg i.g; for blood glucose at 30 min after glucose loaded / blood glucose at 60 min after glucose loaded / blood glucose at 120 min after glucose loaded: glucose 8 g/kg i.g 30 min after drug; for Fasting blood glucose: fasted, before administration (baseline), group dosed 3 mg/kg i.g; for blood glucose levels compared with the blank group / blood glucose value compared with the positive drug (Linagliptin): normal mice, at 30, 60 and 120 min after glucose loaded; for blood glucose levels compared with the blank group: P<0.01
Method: KM mice, 6 weeks old, weighing 18˜22 g, half male and half female, 60 mice, provided by Chengdu Dashuo Biological Technology Co., Ltd., Production license: SCXK (Chuan) 2008-24. Animals were housed in the animal room after purchased, adaptively observed for at least three days, and used for assays […] they were qualified for the quarantine standard.
(§1) 2.1 Animals were fasted for at least 12 hours before starting the assay;
2.2 Grouping: fasting blood glucose values of the fasted mice were measured, and the mice were randomly grouped according to Table 1, with no significant difference between the groups;
(§2) Animals in each group were administrated with corresponding investigational compounds according the Table 1 by intragastric administration (i.g), then administrated with glucose (8 g/kg) respectively by intragastric administration at 30 min after administrating drugs, and the blood glucose values thereof were measured respectively at 30 min, 60 min and 120 min after administrating the glucose (glucose loaded).
(§3) Excel was used for statistics, experimental data were expressed as ( x±SD), and two-sided T-test method was used to statistically compare the experimental data among multiple groups.

[2] = system: Type II spontaneous diabetic KKAy obese mice; assay: Impact on blood glucose in spontaneous diabetic mice; type: in vivo; settings: for blood glucose at 30 min after glucose loaded / blood glucose at 60 min after glucose loaded / blood glucose at 120 min after glucose loaded: glucose 8 g/kg i.g 30 min after drug; for blood glucose at 30 min after glucose loaded / blood glucose at 60 min after glucose loaded / blood glucose at 120 min after glucose loaded / Fasting blood glucose: x ± SD; for Fasting blood glucose: fasted, before administration (baseline), group dosed 3 mg/kg i.g
Method: Type II spontaneous diabetic KKAy obese mice, 60 mice, 14 weeks old, half male and half female, purchased from Institute of Laboratory Animal Science, Chinese Academy of Medical Sciences (Qualified number: SCXK (Jing) 2009-0004). Animals were housed in the animal room after purchased, adaptively observed for at least three days, and used for assays […] they were qualified for the quarantine standard.
as §1
2.2 Fasting blood glucose values of the fasted mice were measured by ACCU-CHEK active glucose test strips, and the mice were randomly grouped according to Table 3. In addition, the C57BL/6J mice were used for the blank control group, while the type II spontaneous diabetic KKAy mice were used for the model group.
as §2, with “according” for “according the”, “Table 3” for “Table 1”
as §3

[3] = molecular target: Dipeptidyl peptidase IV (DPP-IV) (Homo sapiens (Human), UniProt P27487); assay: DPP-IV activity inhibitory assay in vitro; type: biochemical; settings: substrate Gly-Pro-7-amido-4-methylcoumarin, fluorescence 355/460 nm
Chain of Dipeptidyl peptidase IV (DPP-IV) (P27487 whole entry): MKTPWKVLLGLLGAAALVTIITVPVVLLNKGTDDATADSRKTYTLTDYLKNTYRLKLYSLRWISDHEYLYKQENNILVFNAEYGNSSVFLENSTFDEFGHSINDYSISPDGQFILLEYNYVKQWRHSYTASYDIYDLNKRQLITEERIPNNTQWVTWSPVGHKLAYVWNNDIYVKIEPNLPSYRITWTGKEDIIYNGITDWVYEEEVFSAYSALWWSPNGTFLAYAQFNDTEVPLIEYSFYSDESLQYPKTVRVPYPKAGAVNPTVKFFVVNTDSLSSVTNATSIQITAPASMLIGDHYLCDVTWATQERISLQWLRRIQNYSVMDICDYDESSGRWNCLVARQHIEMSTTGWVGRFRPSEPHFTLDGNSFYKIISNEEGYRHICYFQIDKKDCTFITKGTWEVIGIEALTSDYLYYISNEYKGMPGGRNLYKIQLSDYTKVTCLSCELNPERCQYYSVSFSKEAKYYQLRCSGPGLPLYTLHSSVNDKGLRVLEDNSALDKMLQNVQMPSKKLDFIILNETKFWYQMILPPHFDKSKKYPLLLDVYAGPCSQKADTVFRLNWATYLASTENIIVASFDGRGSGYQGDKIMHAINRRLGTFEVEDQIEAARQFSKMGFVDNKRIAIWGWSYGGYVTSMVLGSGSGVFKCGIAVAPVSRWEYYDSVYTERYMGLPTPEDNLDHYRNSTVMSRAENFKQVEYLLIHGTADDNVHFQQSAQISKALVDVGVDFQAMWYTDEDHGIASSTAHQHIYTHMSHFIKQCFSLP
Method: 2.1 Dipeptidyl peptidase IV (DPP-IV): SIGMA products, Item No. D4943-1VL.
2.3 DPP-IV buffer: containing 25 mM Hepes, 140 mM NaCl, 1% BSA, 80 mM MgCl2, of which pH was adjusted to 8.0.
2.5 Testing equipment: envision (PerkinElmer Company).
The variation of the product amount can be determined by the variation of fluorescence intensity, so as to reflect the activity level of the enzyme.
The dipeptidyl peptidase IV (DPP-IV), DPP-IV buffer and test samples were used to construct the reaction system of 200 μL, while the blank control (without enzyme and samples) and negative control (without samples) having the same volume were set up. […] Inhibition ratio was calculated according to the fluorescence intensity F value, inhibition ratio=[1−(Fsample−Fblank)/(Fnegative−Fblank)]×100. […] According to inhibition ratio, 4 Parameter Logistic Model in Xlfit software was applied to calculate IC50.

Structure (SMILES)	IC50 [3]	IC50 ([3]; hydrochloride)	blood glucose at 30 min after glucose loaded [1]	blood glucose at 60 min after glucose loaded [1]	blood glucose at 120 min after glucose loaded [1]	Fasting blood glucose [1]	blood glucose levels compared with the blank group [1]	blood glucose levels compared with the model group ([2]; 3 mg/kg i.g, at 30, 60 and 120 min after glucose loaded, P<0.01)	blood glucose at 30 min after glucose loaded ([2]; 3 mg/kg i.g)	blood glucose at 60 min after glucose loaded ([2]; 3 mg/kg i.g)	blood glucose at 120 min after glucose loaded ([2]; 3 mg/kg i.g)	Fasting blood glucose [2]	blood glucose value compared with the positive drug (Linagliptin) [1]	blood glucose value compared with the positive drug Linagliptin at 30 min after glucose loaded ([2]; 3 mg/kg i.g)
CC#CCn1c(N2CCC[C@@H](N)C2)nc2c1c(=O)n(Cc1nc(C)c3ccccc3n1)c(=O)n2C [Linagliptin, reference compound]			17.07 ± 1.83 mmol/L	14.98 ± 1.66 mmol/L	9.96 ± 0.89 mmol/L	7.13 ± 0.86 mmol/L	extremely significantly decrease	extremely significantly decrease	17.14 ± 1.45 mmol/L	13.10 ± 1.38 mmol/L	11.27 ± 1.43 mmol/L	9.09 ± 0.53 mmol/L		
CC#CCn1c(N2CCC[C@@H](N)C2)nc2c1c(=O)n(Cc1nc3cc(F)ccc3s1)c(=O)n2C [Ex. 1, 1-[(5-fluoro-1,3-benzothiazol-2-yl)methyl]-3-methyl-7-(2-butyn-1-yl)-8-[(R)-3-amino-piperidin-1-yl]-xanthine]			15.02 ± 1.99 mmol/L	12.61 ± 1.98 mmol/L	8.79 ± 0.88 mmol/L	7.27 ± 0.74 mmol/L	extremely significantly decrease		14.98 ± 1.53^▴▴★★ mmol/L	11.10 ± 2.45^▴▴★ mmol/L	9.97 ± 1.28 mmol/L	9.29 ± 0.71 mmol/L	extremely significantly decreased	extremely significantly decreased
CC#CCn1c(N2CCC[C@@H](N)C2)nc2c1c(=O)n(Cc1nc3cc(F)ccc3s1)c(=O)n2C.Cl [Ex. 4, 1-[(5-fluoro-1,3-benzothiazol-2-yl)methyl]-3-methyl-7-(2-butyn-1-yl)-8-[(R)-3-amino-piperidin-1-yl]-xanthine hydrochloride]			15.50 ± 1.94 mmol/L	12.75 ± 1.43 mmol/L	8.91 ± 0.98 mmol/L	7.25 ± 0.98 mmol/L	extremely significantly decrease		15.60 ± 1.30^▴▴★ mmol/L	11.45 ± 1.60^▴▴★ mmol/L	10.75 ± 1.20 mmol/L	9.17 ± 0.58 mmol/L	significantly decreased	significantly decreased

Second part, led by results:

IC50 [3]	IC50 ([3]; hydrochloride)	Structure (SMILES)	blood glucose at 30 min after glucose loaded [1]	blood glucose at 60 min after glucose loaded [1]	blood glucose at 120 min after glucose loaded [1]	Fasting blood glucose [1]	blood glucose levels compared with the blank group [1]	blood glucose levels compared with the model group ([2]; 3 mg/kg i.g, at 30, 60 and 120 min after glucose loaded, P<0.01)	blood glucose at 30 min after glucose loaded ([2]; 3 mg/kg i.g)	blood glucose at 60 min after glucose loaded ([2]; 3 mg/kg i.g)	blood glucose at 120 min after glucose loaded ([2]; 3 mg/kg i.g)	Fasting blood glucose [2]	blood glucose value compared with the positive drug (Linagliptin) [1]	blood glucose value compared with the positive drug Linagliptin at 30 min after glucose loaded ([2]; 3 mg/kg i.g)
0.1 nM		CC#CCn1c(N2CCC[C@@H](N)C2)nc2c1c(=O)n(Cc1nc3ccccc3s1)c(=O)n2C [Ex. 2, 1-[(1,3-benzothiazol-2-yl)methyl]-3-methyl-7-(2-butyn-1-yl)-8-[(R)-3-amino-piperidin-1-yl]-xanthine]	15.59 ± 2.04 mmol/L	12.78 ± 1.97 mmol/L	8.96 ± 1.16 mmol/L	7.43 ± 1.32 mmol/L	extremely significantly decrease		15.59 ± 1.23^▴▴★ mmol/L	11.41 ± 1.58^▴▴★ mmol/L	10.81 ± 1.37 mmol/L	9.07 ± 0.67 mmol/L	significantly decreased	significantly decreased
0.2 nM		CC#CCn1c(N2CCC[C@@H](N)C2)nc2c1c(=O)n(Cc1nc3cc(Cl)ccc3s1)c(=O)n2C [Ex. 3, 1-[(5-chloro-1,3-benzothiazol-2-yl)methyl]-3-methyl-7-(2-butyn-1-yl)-8-[(R)-3-amino-piperidin-1-yl]-xanthine]	15.61 ± 1.10 mmol/L	13.49 ± 1.31 mmol/L	8.90 ± 1.26 mmol/L	7.19 ± 1.04 mmol/L	extremely significantly decrease		15.86 ± 1.04^▴▴★ mmol/L	11.28 ± 1.67^▴▴★ mmol/L	10.73 ± 1.46 mmol/L	9.15 ± 0.61 mmol/L	significantly decreased	significantly decreased
	0.15 nM	CC#CCn1c(N2CCC[C@@H](N)C2)nc2c1c(=O)n(Cc1nc3ccccc3s1)c(=O)n2C [Ex. 5, 1-[(1,3-benzothiazol-2-yl)methyl]-3-methyl-7-(2-butyn-1-yl)-8-[(R)-3-amino-piperidin-1-yl]-xanthine hydrochloride]												
